Measured values taken from patent publication US9034905B2, “Synergistic microbicidal combinations” (Rohm and Haas Company, priority 2003, dated 2015).
Where two headings read alike, the source gives them in different places.

What was measured:
Type in all cases: cell-based
[1] = test system: Aspergillus niger (A. niger—ATCC 16404); assay: Synergy test, microtiter plate high resolution MIC assay, mold; details: for SI (synergy index, Qa/QA+Qb/QB): <1 synergism, 1 additivity, >1 antagonism; for MIC: Aspergillus niger, read-out: MIC of the microbicide acting alone (QA or QB)
Experimental: (§1) When the sum of Qa/QA and Qb/QB is greater than one, antagonism is indicated. […] The lower the SI, the greater the synergy shown by that particular mixture. The minimum inhibitory concentration (MIC) of a microbicide is the lowest concentration tested under a specific set of conditions that prevents the growth of added microorganisms.
(§2) Synergy tests were conducted using standard microtiter plate assays with media designed for optimal growth of the test microorganism. Minimal salt medium supplemented with 0.2% glucose and 0.1% yeast extract (M9GY medium) was used for testing bacteria; Potato Dextrose Broth (PDB medium) was used for testing yeast and mold. In this method, a wide range of combinations of microbicides was tested by conducting high resolution MIC assays in the presence of various concentrations of MI. High resolution MICs were determined by adding varying amounts of microbicide to one column of a microtitre plate and doing subsequent ten-fold dilutions using an automated liquid handling system to obtain a series of endpoints ranging from 2 ppm to 10,000 ppm active ingredient. […] The bacteria were used at a concentration of about 5×10^6 bacteria per mL and the yeast and mold at 5×10^5 fungi per mL. These microorganisms are representative of natural contaminants in many consumer and industrial applications. […] (yeast and mold) or 30° C. (bacteria).
(§3) In each test, First Component (A) was MI and the Second Component (B) was the other commercial microbicide.

[2] = test system: Candida albicans (C. albicans—ATCC 10231); assay: Synergy test, microtiter plate high resolution MIC assay, yeast; details: for SI (synergy index, Qa/QA+Qb/QB): <1 synergism, 1 additivity, >1 antagonism; for MIC: Candida albicans, read-out: MIC of the microbicide acting alone (QA or QB)
Experimental: as §1, §2, §3

[3] = test system: Staphylococcus aureus (S. aureus—ATCC #6538); assay: Synergy test, microtiter plate high resolution MIC assay, Gram (+) bacteria; details: for SI (synergy index, Qa/QA+Qb/QB): <1 synergism, 1 additivity, >1 antagonism; for MIC: Staphylococcus aureus
Experimental: as §1, §2, §3

[4] = test system: Pseudomonas aeruginosa (P. aeruginosa—ATCC #9027); assay: Synergy test, microtiter plate high resolution MIC assay, Gram (−) bacteria; details: for SI (synergy index, Qa/QA+Qb/QB): <1 synergism, 1 additivity, >1 antagonism; for MIC: Pseudomonas aeruginosa, read-out: MIC of the microbicide acting alone (QA or QB)
Experimental: as §1, §2, §3

[5] = ATCC16404, 168 h, A. niger, 1 week, PDB medium, 25° C.
[6] = ATCC10231, C. albicans, 72 hours, PDB medium, 25° C.
[7] = ATCC6538, S. aureus, 72 hours, M9GY medium, 30° C., read-out: MIC of the microbicide acting alone (QA or QB)
[8] = ATCC9027, P. aeruginosa, 24 hours, M9GY medium, 30° C.
[9] = ATCC6538, 72 h, read-out: MIC of the microbicide acting alone (QA or QB), S. aureus, 72 hours, M9GY medium, 30° C.
[10] = ATCC6538, S. aureus, 24 hours, M9GY medium, 30° C., read-out: MIC of the microbicide acting alone (QA or QB)
[11] = ATCC9027, P. aeruginosa, 48 hours, M9GY medium, 30° C.

Row | Molecule | SI (synergy index, Qa/QA+Qb/QB) ([1]; A. niger, 1 week) | MIC [1, 5] | SI (synergy index, Qa/QA+Qb/QB) ([2]; C. albicans, 72 hours) | MIC [2, 6] | SI (synergy index, Qa/QA+Qb/QB) ([3]; S. aureus, 72 hours) | MIC [3, 7] | SI (synergy index, Qa/QA+Qb/QB) ([4]; P. aeruginosa, 24 hours) | MIC [4, 8] | SI (synergy index, Qa/QA+Qb/QB) ([2]; C. albicans, 48 hours) | SI (synergy index, Qa/QA+Qb/QB) ([4]; P. aeruginosa, 72 hours) | other results
1 | N#CCCC(Br)(C#N)CBr (stereo not shown) [1,2-dibromo-2,4-dicyanobutane] | 1.00 | 100 µg/mL | 1.00 | 500 µg/mL | 1.00 | 1000 µg/mL | 1.00 | 800 µg/mL | – | – | –
2 | CC1(C)C(=O)N(CO)C(=O)N1CO [1,3-dimethylol-5,5-dimethylhydantoin] | 1.00 | 3000 µg/mL | 1.00 | 3000 µg/mL | 1.00 | 200 µg/mL | 1.00 | 300 µg/mL | – | – | –
3 | Cn1sccc1=O [2-methyl-3-isothiazolone] | 1.00 | – | 1.00 | – | 1.00 | – | 1.00 | – | 1.00 | 1.00 | SI (synergy index, Qa/QA+Qb/QB) ([1]; A. niger, 72 hours): 1.00; SI (synergy index, Qa/QA+Qb/QB) ([1]; A. niger, 96 hours): 1.00; MIC ([1]; ATCC16404, 72 h): 300 µg/mL; MIC ([1]; ATCC16404, 96 h): 300 µg/mL; MIC ([1]; ATCC16404, 168 h): 300 µg/mL; MIC ([2]; ATCC10231, 48 h): 200 µg/mL; MIC ([2]; ATCC10231, 72 h): 200 µg/mL; SI (synergy index, Qa/QA+Qb/QB) ([3]; S. aureus, 24 hours): 1.00; MIC ([3]; ATCC6538, 24 h, read-out: MIC of the microbicide acting alone (QA or QB), S. aureus, 24 hours, M9GY medium, 30° C.): 40 µg/mL; MIC [3, 9]: 60 µg/mL; SI (synergy index, Qa/QA+Qb/QB) ([4]; P. aeruginosa, 48 hours): 1.00; MIC ([4]; ATCC9027, 24 h): 15 µg/mL; MIC ([4]; ATCC9027, 48 h): 20 µg/mL; MIC ([4]; ATCC9027, 72 h): 20 µg/mL
4 | O=C(O)c1ccccc1 [benzoic acid] | 1.00 | – | – | – | 1.00 | – | – | – | 1.00 | 1.00 | MIC ([1]; ATCC16404, 168 h): 10000 µg/mL; MIC ([2]; ATCC10231, 48 h): 5000 µg/mL; MIC [3, 9]: 6000 µg/mL; MIC ([4]; ATCC9027, 72 h): 6000 µg/mL
5 | OCc1ccccc1 [benzyl alcohol] | – | – | – | – | 1.00 | 8000 µg/mL | 1.00 | 6000 µg/mL | 1.00 | – | SI (synergy index, Qa/QA+Qb/QB) ([1]; A. niger, 72 hours): 1.00; MIC ([1]; ATCC16404, A. niger, 72 hours, PDB medium, 25° C.): 8000 µg/mL; MIC ([2]; ATCC10231, C. albicans, 48 hours, PDB medium, 25° C.): 6000 µg/mL
6 | O=C(O)CC(O)(CC(=O)O)C(=O)O [citric acid] | – | 10000 µg/mL | – | 10000 µg/mL | – | – | – | – | – | – | MIC [3, 10]: 4000 µg/mL; MIC [4, 11]: 6000 µg/mL
7 | CC(C)(C)C(=O)C(Oc1ccc(Cl)cc1)n1ccnc1 (stereo not shown) [climbazole] | – | – | 1.00 | 300 µg/mL | – | – | – | – | – | – | SI (synergy index, Qa/QA+Qb/QB) ([3]; S. aureus, 24 hours): 1.00; MIC [3, 10]: 2000 µg/mL
8 | C/C=C/C=C/C(=O)O [sorbic acid] | – | – | 1.00 | 400 µg/mL | 1.00 | 10000 µg/mL | – | – | – | – | SI (synergy index, Qa/QA+Qb/QB) ([1]; A. niger, 96 hours): 1.00; MIC ([1]; ATCC16404, A. niger, 96 hours, PDB medium, 25° C.): 4000 µg/mL; SI (synergy index, Qa/QA+Qb/QB) ([4]; P. aeruginosa, 48 hours): 1.00; MIC [4, 11]: 10000 µg/mL
9 | zinc pyrithione | 1.00 | – | – | – | 1.00 | – | – | – | 1.00 | 1.00 | MIC of the microbicide acting alone (QA or QB) ([1]; A. niger, 1 week, PDB medium, 25° C.): 80 ppm; MIC of the microbicide acting alone (QA or QB) ([2]; C. albicans, 48 hours, PDB medium, 25° C.): 80 ppm; MIC of the microbicide acting alone (QA or QB) ([3]; S. aureus, 72 hours, M9GY medium, 30° C.): 20 ppm; MIC of the microbicide acting alone (QA or QB) ([4]; P. aeruginosa, 72 hours, M9GY medium, 30° C.): 200 ppm
